From PubChem BioAssay AID1963862 (Molecular Pharmacology Branch, DTP, NCI, 2024)

Test system: KRAS patient-derived spheroids with HUVEC/MSC, viability
Assay: Anticancer human tumor 941728-121-R-J1-PDC patient-derived lung adenocarcinoma cell line growth inhibition [KRAS2]
Conditions: for IC50: curve of first compound; for viability, T/C: stronger effect = lower value
How it was run: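 Combination screen of spheroid viability in tumor-cell co-cultures with endothelial (HUVEC) and mesenchymal stem cell stroma. Each agent was tested in half-log dilutions, topping at clinical Cmax or at 10 microM without a known Cmax.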

[1] = second compound 0.1 µM, first compound 0.000316 µM
[2] = second compound 0.1 µM, first compound 0.001 µM
[3] = second compound 0.1 µM, first compound 0.00316 µM
[4] = second compound 0.1 µM, first compound 0.01 µM
[5] = second compound 0.1 µM, first compound 0.0316 µM
[6] = second compound 0.1 µM, first compound 0.1 µM
[7] = second compound 0.316 µM, first compound 0.000316 µM
[8] = second compound 0.316 µM, first compound 0.001 µM
[9] = second compound 0.316 µM, first compound 0.00316 µM
[10] = second compound 0.316 µM, first compound 0.01 µM
[11] = second compound 0.316 µM, first compound 0.0316 µM
[12] = second compound 0.316 µM, first compound 0.1 µM
[13] = second compound 1 µM, first compound 0.000316 µM
[14] = second compound 1 µM, first compound 0.001 µM
[15] = second compound 1 µM, first compound 0.00316 µM
[16] = second compound 1 µM, first compound 0.01 µM
[17] = second compound 1 µM, first compound 0.0316 µM
[18] = second compound 1 µM, first compound 0.1 µM
[19] = second compound 3.16 µM, first compound 0.000316 µM
[20] = second compound 3.16 µM, first compound 0.001 µM
[21] = second compound 3.16 µM, first compound 0.00316 µM
[22] = second compound 3.16 µM, first compound 0.01 µM
[23] = second compound 3.16 µM, first compound 0.0316 µM
[24] = second compound 3.16 µM, first compound 0.1 µM
[25] = second compound 10 µM, first compound 0.000316 µM
[26] = second compound 10 µM, first compound 0.001 µM
[27] = second compound 10 µM, first compound 0.00316 µM
[28] = second compound 10 µM, first compound 0.01 µM
[29] = second compound 10 µM, first compound 0.0316 µM
[30] = second compound 10 µM, first compound 0.1 µM
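Further: spheroids exposed to agents for seven days before readout.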

SMILES | IC50 (second compound 0.1 µM) | IC50 (second compound 0.316 µM) | IC50 (second compound 1 µM) | IC50 (second compound 3.16 µM) | viability, T/C [1] | viability, T/C [2] | viability, T/C [3] | viability, T/C [4] | viability, T/C [5] | viability, T/C [6] | viability, T/C [7] | viability, T/C [8] | viability, T/C [9] | viability, T/C [10] | viability, T/C [11] | viability, T/C [12] | viability, T/C [13] | viability, T/C [14] | viability, T/C [15] | viability, T/C [16] | other results
CC(C)n1nc(-c2ccc3oc(N)nc3c2)c2c(N)ncnc21 + COc1cc2nc(C)nc(NC(C)c3cc(N)cc(C(F)(F)F)c3)c2cc1OC1CCOC1 | < 0.316 nM | < 0.316 nM | < 0.316 nM | < 0.316 nM | 41.2% | 47.9% | 40.9% | 33.3% | 31% | 28.3% | 42.4% | 50% | 40.4% | 24.3% | 24.9% | 16.7% | 40.8% | 37% | 26.1% | 19.8% | IC50 (second compound 10 µM): < 0.316 nM; viability, T/C [17]: 19.9%; viability, T/C [18]: 12.8%; viability, T/C [19]: 31.4%; viability, T/C [20]: 31.9%; viability, T/C [21]: 18.5%; viability, T/C [22]: 15%; viability, T/C [23]: 12.6%; viability, T/C [24]: 4.73%; viability, T/C [25]: 7.59%; viability, T/C [26]: 6.39%; viability, T/C [27]: 2.23%; viability, T/C [28]: 2.22%; viability, T/C [29]: 0.71%; viability, T/C [30]: 4.65%
Cn1ncnc1[C@H]1c2n[nH]c(=O)c3cc(F)cc(c23)N[C@@H]1c1ccc(F)cc1 + C=CC(=O)N1CCN(c2nc(OCC3CCCN3C)nc3c2CCN(c2cccc4cccc(C)c24)C3)CC1CC#N | < 0.316 nM | < 0.316 nM | < 0.316 nM | < 0.316 nM | 18.3% | 18.2% | 19.9% | 17.6% | 17.3% | 15.8% | 18.2% | 18.9% | 17.9% | 16.2% | 16% | 17.1% | 17.6% | 17.5% | 13.5% | 18.3% | IC50 (second compound 0.0316 µM): < 0.316 nM; viability, T/C (second compound 0.0316 µM, first compound 0.000316 µM): 24.6%; viability, T/C (second compound 0.0316 µM, first compound 0.001 µM): 23.2%; viability, T/C (second compound 0.0316 µM, first compound 0.00316 µM): 19.4%; viability, T/C (second compound 0.0316 µM, first compound 0.01 µM): 19.7%; viability, T/C (second compound 0.0316 µM, first compound 0.0316 µM): 17.4%; viability, T/C (second compound 0.0316 µM, first compound 0.1 µM): 17.5%; viability, T/C [17]: 15.5%; viability, T/C [18]: 14.2%; viability, T/C [19]: 0.11%; viability, T/C [20]: 0.2%; viability, T/C [21]: 0.09%; viability, T/C [22]: 0.11%; viability, T/C [23]: 0.16%; viability, T/C [24]: 0.23%
CN(C)C/C=C/C(=O)Nc1cc2c(Nc3ccc(F)c(Cl)c3)ncnc2cc1O[C@H]1CCOC1 + CNCc1ccccc1-c1csc(C(C)Nc2nc(C)nc3cc(OC)c(OC)cc23)c1 | < 0.316 nM | < 0.316 nM | < 0.316 nM | < 0.316 nM | 44% | 45.9% | 36.2% | 34.6% | 31.6% | 35.6% | 32.6% | 24.5% | 28.5% | 23.8% | 25.6% | 29.9% | 20.5% | 19.6% | 18.5% | 19.6% | IC50 (second compound 10 µM): < 0.316 nM; viability, T/C [17]: 20.6%; viability, T/C [18]: 19.4%; viability, T/C [19]: 0.61%; viability, T/C [20]: 0.24%; viability, T/C [21]: 0.15%; viability, T/C [22]: 0.14%; viability, T/C [23]: 0.13%; viability, T/C [24]: 0.18%; viability, T/C [25]: 0.05%; viability, T/C [26]: 0.04%; viability, T/C [27]: 0.04%; viability, T/C [28]: 0.08%; viability, T/C [29]: 0.04%; viability, T/C [30]: 0.32%
